Measurements reported in ChEMBL document CHEMBL1125475, “Preferred antagonist binding state of the NMDA receptor: synthesis, pharmacology, and computer modeling of (phosphonomethyl)phenylalanine derivatives” (1992).

Tests used:
Format in all cases: functional
Mus musculus [1] = species: Mus musculus; assay: Antagonistic activity of 100 uM of compound against electrophysiological responses induced by NMDA (10 uM) in culture mouse cortical neurons
Mus musculus [2] = species: Mus musculus; assay: Antagonistic activity of 10 uM of compound against electrophysiological responses induced by NMDA (10 uM) in culture mouse cortical neurons
Mus musculus [3] = species: Mus musculus; assay: Tested for antagonistic activity against electrophysiological responses induced by NMDA (10 uM) in culture mouse cortical neurons at 100 uM
Mus musculus [4] = species: Mus musculus; assay: Tested for antagonistic activity against electrophysiological responses induced by NMDA (10 uM) in culture mouse cortical neurons at 10 uM

Question: `NC(CC1CCCC(CP(=O)(O)O)C1)C(=O)O` (centres undefined) was tested. Which Inhibition (Mus musculus [1]) did it give?
Answer: 90%

Question: What about the Inhibition (Mus musculus [2]) of the same compound?
Answer: 34%

Question: How did the Inhibition (Mus musculus [1]) turn out when `NC(CC1CCC(CP(=O)(O)O)CC1)C(=O)O` (centres undefined) was run?
Answer: 18%

Question: How did the Inhibition (Mus musculus [1]) turn out when `NC(Cc1cccc(CC(=O)O)c1)C(=O)O` (centres undefined) was run?
Answer: 31%

Question: With `NC(Cc1ccc(CP(=O)(O)O)cc1)C(=O)O` (centres undefined) as the compound, how does the Inhibition (Mus musculus [1]) read?
Answer: 0%

Question: Which results are given for `NC(Cc1ccccc1CP(=O)(O)O)C(=O)O` (centres undefined)?
Answer: Inhibition (Mus musculus [1]): 87%; Inhibition (Mus musculus [2]): 40%

Question: For `NC(CC1CCCC(CS(=O)(=O)[O-])C1)C(=O)O.[Na+]` (centres undefined), which Inhibition (Mus musculus [1]) is on record?
Answer: 50%

Question: With `NC(Cc1ccccc1CS(=O)(=O)[O-])C(=O)O.[Na+]` (centres undefined) as the compound, how does the Inhibition (Mus musculus [1]) read?
Answer: 22%

Question: What does the source list for `NC(Cc1cccc(CP(=O)(O)O)c1)C(=O)O` (centres undefined)?
Answer: Inhibition (Mus musculus [1]): 100%; Inhibition (Mus musculus [2]): 80%

Question: For `NC(CC1CCCCC1CS(=O)(=O)[O-])C(=O)O.[Na+]` (centres undefined), which Inhibition (Mus musculus [1]) is on record?
Answer: 50%

Question: With `NC(CC1CCC(CS(=O)(=O)[O-])CC1)C(=O)O.[Na+]` (centres undefined) as the compound, how does the Inhibition (Mus musculus [1]) read?
Answer: 20%

Question: How did the Inhibition (Mus musculus [1]) turn out when `NC(CC1CCCCC1CP(=O)(O)O)C(=O)O` (centres undefined) was run?
Answer: 75%

Question: `NC(Cc1ccc(CS(=O)(=O)[O-])cc1)C(=O)O.[Na+]` (centres undefined) was tested. Which Inhibition (Mus musculus [1]) did it give?
Answer: 0%

Question: Which Inhibition (Mus musculus [3]) does the source give for `NC(Cc1cccc(CC(=O)NO)c1)C(=O)O` (centres undefined) here?
Answer: 12%

Question: What does the source list for `NC(CCCP(=O)(O)O)C(=O)O` (centres undefined)?
Answer: Inhibition (Mus musculus [3]): 100%; Inhibition (Mus musculus [4]): 68%

Question: `NC(Cc1cccc(CS(=O)(=O)[O-])c1)C(=O)O.[Na+]` (centres undefined) was tested. Which Inhibition (Mus musculus [1]) did it give?
Answer: 0%
